Reference: BigSolDB 2.1

CC(C)(O)P1(=O)OCC2(CO1)COP(=O)(C(C)(C)O)OC2 (stereo not given)
Settings | solubility (mole fraction)
in acetic acid, 293.16 K | 0.00691
in acetic acid, 298.15 K | 0.0078
in acetic acid, 303.14 K | 0.00907
in acetic acid, 307.96 K | 0.0104
in acetic acid, 312.97 K | 0.0114
in acetic acid, 318.05 K | 0.0131
in acetic acid, 323.15 K | 0.015
in acetic acid, 328.05 K | 0.0173
in acetic acid, 333.04 K | 0.0196
in acetic acid, 338.14 K | 0.0231
in acetone, 293.6 K | 0.000582
in acetone, 298.44 K | 0.000762
in acetone, 303.35 K | 0.00095
in acetone, 308.29 K | 0.00124
in acetone, 313.27 K | 0.00159
in acetone, 318.4 K | 0.00194
in acetone, 323.3 K | 0.00234
in ethanol, 294.15 K | 0.00153
in ethanol, 297.63 K | 0.00184
in ethanol, 303.05 K | 0.00231
in ethanol, 307.95 K | 0.00269
in ethanol, 313.15 K | 0.00346
in ethanol, 318.16 K | 0.00391
in ethanol, 322.95 K | 0.00476
in ethanol, 327.84 K | 0.00582
in ethanol, 332.93 K | 0.00666
in ethanol, 337.94 K | 0.00846
in methanol, 293.13 K | 0.00585
in methanol, 298.15 K | 0.00665
in methanol, 302.94 K | 0.00751
in methanol, 307.75 K | 0.00875
in methanol, 312.76 K | 0.00998
in methanol, 317.95 K | 0.0117
in methanol, 323.05 K | 0.0136
in water, 293.13 K | 0.00564
in water, 298.01 K | 0.00585
in water, 303.15 K | 0.00607
in water, 308.16 K | 0.00631
in water, 313.05 K | 0.00658
in water, 317.89 K | 0.00692
in water, 323.05 K | 0.00723
in water, 328.13 K | 0.00754
in water, 332.95 K | 0.00793
in water, 337.94 K | 0.00826
in water, 342.86 K | 0.00867
